Holding throughout (type): in vivo
For test [1], the system named is African malaria mosquitos (Anopheles gambiae). As to the kind of experiment: Test Example 2: vial inner-wall contact test, 50 minutes exposure, female adult African malaria mosquitos. The following applies: Anopheles gambiae female adults, after 4 days, read-out: Moribund and mortal rates (%) after 4 days; for mortality at 5 mg/m2: 5 mg/m^2 treated per area; for mortality at 10 mg/m2: 10 mg/m^2 treated per area; for mortality at 300 mg/m2: 300 mg/m^2 treated per area. Here is the method:
In a 250 mL volume vial, 1.0 mL of an acetone solution (containing 0.09% of a surfactant added therein) which contains prescribed amount of the present compound A, the present compound B, comparative compound 1, comparative compound 2, comparative compound 3, or comparative compound 4 was added dropwise and the inner wall of the vial was coated homogeneously with the chemicals and then air-dried. Thereafter, female adult African malaria mosquitos (Anopheles gambiae) were released and the vial was sealed with a lid, followed by exposure for 50 minutes. 50 Minutes after exposure, African malaria mosquitos were transferred to a new plastic cup, followed by feeding sugar water. After 4 days, the number of dead and moribund individuals of African malaria mosquitos was examined, and moribund and mortal rates (%) were determined by the equation 2 below. Dead individuals are completely immobile individuals, and moribund individuals are individuals who are flightless and non-ambulatory.
Moribund and mortal rates (%)={(number of dead individuals+number of moribund individuals)/number of tested individuals}×100 (Equation 2)
The amount to be treated per area was set at 300, 10 and 5 mg/m^2.

The subject of test [2] is German cockroaches (Blattella germanica). As to the kind of experiment: Test Example 1: vial inner-wall residual contact test, German cockroaches. The following applies: German cockroach, read-out: Moribund and mortal rates (%); for mortality at 5 mg/m2: 5 mg/m^2 treated per area; for mortality at 50 mg/m2: 50 mg/m^2 treated per area; for mortality at 150 mg/m2: 150 mg/m^2 treated per area; for mortality at 300 mg/m2: 300 mg/m^2 treated per area; for mortality at 1000 mg/m2: 1,000 mg/m^2 treated per area. The protocol: In a 20 mL volume vial, 0.2 mL of an acetone solution (containing 0.09% of a surfactant added therein) which contains prescribed amount of the present compound A, the present compound B, comparative compound 1, comparative compound 2, comparative compound 3, or comparative compound 4 was added dropwise and the inner wall of the vial was coated homogeneously with the chemicals and then air-dried. Thereafter, five German cockroaches (Blattella germanica) were released and the vial was sealed with a lid. […] Dead individuals are completely immobile individuals, and moribund individuals are individuals who cannot get up when turned on their backs, and are non-ambulatory.
Moribund and mortal rates (%)={(number of dead individuals+number of moribund individuals)/number of tested individuals}×100 (Equation 1)
The amount to be treated per area was set at 1000, 300, 150, 50 and 5 mg/m^2.

The test system of test [3] is little red worker ants (Monomorium pharaonis). The test is described as follows: Test Example 3: vial inner-wall contact test, 1 hour exposure, little red worker ants. The settings on record: Monomorium pharaonis workers, after 1 day, read-out: Moribund and mortal rates (%) after 1 day; for mortality at 5 mg/m2: 5 mg/m^2 treated per area; for mortality at 100 mg/m2: 100 mg/m^2 treated per area; for mortality at 300 mg/m2: 300 mg/m^2 treated per area. Here is the method:
In a 20 mL volume vial, 0.2 mL of an acetone solution (containing 0.09% of a surfactant added therein) which contains prescribed amount of the present compound A, the present compound B, comparative compound 1, comparative compound 2, comparative compound 3, or comparative compound 4 was added dropwise and the inner wall of the vial was coated homogeneously with the chemicals and then air-dried. Thereafter, little red worker ants (Monomorium pharaonis) were released and the vial was sealed with a lid. After 1 hour, little red worker ants in the vial were transferred to a new plastic cup, followed by feeding […] sucrose water. After 1 day, the number of dead and moribund individuals was examined, and moribund and mortal rates (%) were determined by the equation 3 below. Dead individuals are completely immobile individuals, and moribund individuals are individuals who cannot get up when turned on their backs, and are non-ambulatory.
Moribund and mortal rates (%)={(number of dead individuals+number of moribund individuals)/number of tested individuals}×100 (Equation 3)
The amount to be treated per area was set at 300, 100 and 5 mg/m^2.

For test [4], the system named is Formosan subterranean worker termites (Coptotermes formosanus). The test is described as follows: Test Example 4: treated filter paper contact test, 1 hour exposure, Formosan subterranean worker termites. The settings on record: Coptotermes formosanus workers, after 3 days, read-out: Moribund and mortal rates (%) after 3 days; for mortality at 300 mg/m2: 300 mg/m^2 treated per area; for mortality at 500 mg/m2: 500 mg/m^2 treated per area; for mortality at 1000 mg/m2: 1,000 mg/m^2 treated per area. Here is the method:
0.6 mL of an acetone solution containing prescribed amount of the present compound A, the present compound B, comparative compound 1, comparative compound 2, comparative compound 3, or comparative compound 4 was added dropwise on a filter paper having a diameter of 82 mm, followed by air drying. The filter paper was attached to a plastic petri dish having a diameter of 90 mm without gaps by adding dropwise 1.4 mL of water, and then Formosan subterranean worker termites (Coptotermes formosanus) were released and the vial was sealed with a lid, followed by exposure for 1 hours. After exposure for 1 hour, Formosan subterranean worker termites were transferred to a new plastic cup with bottom lined with the filter paper, followed by feeding water. After 3 days, the number of dead and moribund individuals of Formosan subterranean worker termites was examined, and moribund and mortal rates (%) were determined by the equation 4 below. Dead individuals are completely immobile individuals, and moribund individuals are individuals who are flightless and non-ambulatory.
Moribund and mortal rates (%)={(number of dead individuals+number of moribund individuals)/number of tested individuals}×100 (Equation 4)
The amount to be treated per area was set at 1,000, 500 and 300 mg/m^2.

For the compound `CCS(=O)(=O)c1cc(C)cnc1-c1nc2cc(S(=O)(=O)C(F)(F)F)ccc2o1` [Comparative compound 4], in test [1], the mortality at 5 mg/m2 was found to be 8%, the mortality at 10 mg/m2 was 15% and the mortality at 300 mg/m2 amounted to 26%. Moreover, in test [2], the mortality at 5 mg/m2 stood at 10%, the mortality at 50 mg/m2 worked out at 10%, the mortality at 150 mg/m2 was 20% and the mortality at 300 mg/m2 was found to be 30%. Moreover, in test [2], the mortality at 1000 mg/m2 was 100%. In test [3], the mortality at 5 mg/m2 worked out at 10%, the mortality at 100 mg/m2 turned out to be 20% and the mortality at 300 mg/m2 was found to be 100%. Also, in test [4], the mortality at 300 mg/m2 was found to be 10%, the mortality at 500 mg/m2 was found to be 10% and the mortality at 1000 mg/m2 was found to be 100%.

Consider `CCS(=O)(=O)c1cc(C2CC2)cnc1-c1nc2cc([S+]([O-])C(F)(F)F)ccc2o1` (stereo not drawn) [Present compound A], for which, in test [1], the mortality at 5 mg/m2 came out at 100%, the mortality at 10 mg/m2 was 100% and the mortality at 300 mg/m2 is 100%. Further, in test [2], the mortality at 5 mg/m2 was 100%, the mortality at 50 mg/m2 was found to be 100%, the mortality at 150 mg/m2 turned out to be 100% and the mortality at 300 mg/m2 was found to be 100%. In addition, the mortality at 1000 mg/m2 in test [2] is 100%. In test [3], the mortality at 5 mg/m2 amounted to 100%, the mortality at 100 mg/m2 was 100% and the mortality at 300 mg/m2 was found to be 100%. In addition, in test [4], the mortality at 300 mg/m2 was found to be 100%, the mortality at 500 mg/m2 is 100% and the mortality at 1000 mg/m2 was determined as 100%.

With `CCS(=O)(=O)c1cc(C(F)(F)F)cnc1-c1nc2cc([S+]([O-])C(F)(F)F)ccc2o1` (stereo not drawn) [Comparative compound 1], in test [1], the mortality at 5 mg/m2 worked out at 3%, the mortality at 10 mg/m2 is 43% and the mortality at 300 mg/m2 was found to be 53%. In addition, in test [2], the mortality at 5 mg/m2 is 10%, the mortality at 50 mg/m2 came out at 30%, the mortality at 150 mg/m2 turned out to be 50% and the mortality at 300 mg/m2 was 50%. Moreover, the mortality at 1000 mg/m2 in test [2] is 100%. For the same compound, in test [3], the mortality at 5 mg/m2 was 30%, the mortality at 100 mg/m2 was 40% and the mortality at 300 mg/m2 was 100%. Besides, in test [4], the mortality at 300 mg/m2 worked out at 10%, the mortality at 500 mg/m2 was 30% and the mortality at 1000 mg/m2 turned out to be 100%.

For the compound `CCS(=O)(=O)c1cc(C)cnc1-c1nc2cc([S+]([O-])C(F)(F)F)ccc2o1` (stereo not drawn) [Comparative compound 3], in test [1], the mortality at 5 mg/m2 turned out to be 6%, the mortality at 10 mg/m2 is 7% and the mortality at 300 mg/m2 was found to be 35%. Further, in test [2], the mortality at 5 mg/m2 was determined as 10%, the mortality at 50 mg/m2 is 30%, the mortality at 150 mg/m2 came out at 30% and the mortality at 300 mg/m2 is 40%. Moreover, the mortality at 1000 mg/m2 in test [2] was 100%. Also, in test [3], the mortality at 5 mg/m2 was determined as 10%, the mortality at 100 mg/m2 was 30% and the mortality at 300 mg/m2 came to 100%. For the same compound, in test [4], the mortality at 300 mg/m2 was found to be 10%, the mortality at 500 mg/m2 is 10% and the mortality at 1000 mg/m2 turned out to be 100%.

For `CCS(=O)(=O)c1cc(C2CC2)cnc1-c1nc2cc(S(=O)(=O)C(F)(F)F)ccc2o1` [Present compound B], in test [1], the mortality at 5 mg/m2 was 100%, the mortality at 10 mg/m2 was found to be 100% and the mortality at 300 mg/m2 is 100%. Besides, in test [2], the mortality at 5 mg/m2 amounted to 100%, the mortality at 50 mg/m2 was 100%, the mortality at 150 mg/m2 is 100% and the mortality at 300 mg/m2 is 100%. For the same compound, the mortality at 1000 mg/m2 in test [2] came out at 100%. Moreover, in test [3], the mortality at 5 mg/m2 was found to be 100%, the mortality at 100 mg/m2 was 100% and the mortality at 300 mg/m2 is 100%. For the same compound, in test [4], the mortality at 300 mg/m2 was found to be 100%, the mortality at 500 mg/m2 is 100% and the mortality at 1000 mg/m2 is 100%.

As for `CCS(=O)(=O)c1cc(C(F)(F)F)cnc1-c1nc2cc(S(=O)(=O)C(F)(F)F)ccc2o1` [Comparative compound 2], in test [1], the mortality at 5 mg/m2 was found to be 8%, the mortality at 10 mg/m2 is 13% and the mortality at 300 mg/m2 turned out to be 15%. In test [2], the mortality at 5 mg/m2 came out at 10%, the mortality at 50 mg/m2 amounted to 10%, the mortality at 150 mg/m2 came to 20% and the mortality at 300 mg/m2 was found to be 50%. Further, the mortality at 1000 mg/m2 in test [2] came to 100%. Besides, in test [3], the mortality at 5 mg/m2 amounted to 20%, the mortality at 100 mg/m2 was found to be 50% and the mortality at 300 mg/m2 worked out at 100%. Moreover, in test [4], the mortality at 300 mg/m2 worked out at 10%, the mortality at 500 mg/m2 amounted to 20% and the mortality at 1000 mg/m2 came to 100%.
